Reference: patent US7449114B2, “Halogenated solvent remediation” (SRP Technologies, Inc., priority 2000, dated 2008)

What was measured:
[1] = Surface tension of electron donor solutions, pendant drop method; type: physicochemical; details: for change in surface tension: 0% ethyl lactate
Protocol: (§1) Based on the field results presented in Example 1, laboratory studies were performed to confirm that the enhanced bioavailability of TCE observed in the field was due to co-solvent or surfactant behavior resulting from the use of high concentrations of sodium lactate. Two fundamental properties used to screen the co-solvent or surfactant properties of a solution are surface tension and interfacial tension. Surface tension measures the force per unit length along the interface between a liquid and air due to its tension. When a co-solvent or surfactant is present in an aqueous liquid at increasing concentrations, the surface tension of that liquid decreases. Interfacial tension is similar to surface tension except that it measures the force per unit length along the interface between two liquid phases arising from the surface free energy. The higher the interfacial tension between two liquids, the less likely one is to dissolve into the other, and the more difficult it is for one to be transported within the other. […]
The laboratory study performed to confirm the co-solvent properties of the high concentration electron donor solution measured the surface tension of electron donor solutions at various concentrations. Next, interfacial tensions between the same electron donor solutions and nonaqueous phase TCE were measured. […] Surface and interfacial tension measurements were made using the pendant drop method (M. J. Rosen, ed., Structure/Performance Relationships in Surfactants, American Chemical Society, Washington D.C. 329 (1984); R. D. Bagnall & P. A. Arundel, The Profile Area of Pendant Drops, 82 J. Phys. Chem. 898 (1978)) coupled with real-time video imaging (M. D. Herd et al., Interfacial Tensions of Microbial Surfactants Determined by Real-Time Video Imaging of Pendant Drops, Proceedings paper number SPE/DOE 24206 513-519, SPE/DOE Eighth Symposium on Enhanced Oil Recovery, Tulsa, Okla. (1992)). […]

[2] = Interfacial tension between electron donor solutions and nonaqueous phase TCE, pendant drop method; type: physicochemical; details: 0% ethyl lactate
Protocol: as §1
The laboratory study performed to confirm the co-solvent properties of the high concentration electron donor solution measured the surface tension of electron donor solutions at various concentrations. Next, interfacial tensions between the same electron donor solutions and nonaqueous phase TCE were measured. […]

[3] = test system: PCE/TCE plume in ground water; assay: Sodium lactate injection pilot test, Tennessee Air National Guard Site, Memphis (Example 3); details: after 8 months and 4 lactate injections
Text: Site Background. A site-wide Remedial Investigation (RI) identified a chlorinated solvent plume in a sandy aquifer approximately 35 to 60 feet (10.7 to 18.3 m) below ground surface at the 164th Airlift Wing at the Tennessee Air National Guard Site, Memphis, Tenn. The plume area targeted for treatment was over 2 acres (0.81 hectares). This unconfined saturated interval is overlain by an inorganic loess vadose zone and is separated from the deeper regional aquifer by a clay unit. PCE concentrations ranged from 5 to 1,000 μg/L in the target area, while TCE ranged from 100 to greater than 15,000 μg/L in the injection/monitoring wells. […] A pilot test of a sodium lactate injection system to enhance natural reductive dechlorination in the groundwater was approved by the Tennessee Department of Environment and Conservation, the Memphis and Shelby County Health Department, and the Shelby County Ground Water Control Board.
System Design. A three-dimensional model to simulate groundwater flow was developed using the MODFLOW simulator (U.S. Geological Survey). Once calibrated, model simulations were used to determine the optimal injection well locations, as well as the rate and duration of injection. Based on the results of other sodium lactate injection sites, a period of 60 days between injections was assumed. The optimal configuration was determined to be a 9-well injection system at an injection rate of 10 gallons per minute (gpm; 37.8 liters/minute) for 5 days.
Potable water was mixed with 60% sodium lactate to create a 1% solution. An existing 8-inch (20.3-cm) water line was tapped and connected to the distribution control header via a 4-inch (10.2-cm) line, which was housed in a portable 12-ft×14-ft (3.6-m×4.3-m) building. A double-check valve assembly was installed on the 4-inch (10.2-cm)water line to prevent back-siphoning of the injection solution into the 8-inch (20.3-cm) potable water line. Following a mixing zone with the potable water, the resulting 1% solution was delivered to the nine injection wells. […]

[4] = test system: chlorinated ethenes (PCE, TCE) in groundwater; assay: Biostimulation pilot test, IR Site 40, Seal Beach (Example 4)
Protocol: A biostimulation pilot-test program for in situ anaerobic bioremediation of chlorinated ethenes in groundwater was conducted at Installation Restoration (IR) Program Site 40, Naval Weapons Station Seal Beach, Calif. IR Site 40 includes a concrete pit in a locomotive shop building and a gravel area north of and adjacent to the building. Oil and solvents spilled during locomotive maintenance collected in the pit and discharged to the gravel area via a drainpipe (FIG. 11). Groundwater was contaminated with chlorinated solvents, primarily PCE and trichloroethene (TCE). The plume extends over 100 meters (m) downgradient of the source area and is generally limited in extent to approximately 20 m below ground surface. The groundwater gradient is relatively flat and is influenced by tidal fluctuations. The net gradient direction is southeasterly. The Seal Beach National Wildlife Refuge lies downgradient of the site.
The tests were conducted in the area interpreted to have the highest PCE concentrations in groundwater. The tests were conducted over an 8-month period from August 2001 through mid-March 2002. Approximately 210,000 liters (55,500 gallons) of 3 percent sodium lactate solution was injected. A direct injection system was selected over recirculation to avoid reinjection of untreated water into the test cell. A 60 percent sodium lactate solution (JRW Technologies, Lenexa, Kans.) was diluted to 3 percent with potable water using a proportional injector (Dosatron International, Bordeaux, France). Lactate was injected at an average rate of approximately 3,550 gallons per week for the first 2 months. The average injection rate was then adjusted to approximately 750 gallons per week to maintain optimum electron-donor concentrations. No clogging or fouling effects were observed over the course of the pilot test. Water level measurements were performed during injection to assess the induced gradient.
Effects were monitored in seven wells in the pilot-test area. Two wells are located crossgradient and five downgradient of the injection well at distances ranging from approximately 2 to 30 m. Pretest groundwater samples were collected to establish baseline conditions. Weekly groundwater samples were collected during and analyzed on-site using field test kits for sulfate, ferrous iron, alkalinity, chemical oxygen demand (COD) (Hach, Loveland, Colo.), nitrate, and carbon dioxide (CHEMetrics, Calverton, Va.) and direct reading instrumentation for pH, temperature, conductivity, oxidation-reduction potential, and dissolved oxygen (YSI, Yellow Springs, Ohio). Monthly groundwater samples were analyzed off-site for volatile organic compounds, alkalinity, COD, anions, cations, total dissolved solids (Columbia Analytical Services, Kelso, Wash.), and dissolved gases (Performance Analytical, Simi Valley, Calif.). Samples were periodically analyzed for organic acids (Idaho National Engineering and Environmental Laboratory [INEEL], Idaho Falls, Id.), phospholipid fatty acids (Microbial Insights, Rockford, Tenn.), and DNA typing using quantitative polymerase chain reaction (PCR) and terminal restriction fragment length polymorphisms (T-RFLP) analyses (University of California, Berkeley, Calif.), according to methods well known in the art.

[5] = test system: chloroethenes (primarily TCE) in ground water; assay: Field evaluation of enhanced in situ bioremediation, Test Area North (Example 1); details: all wells receiving significant lactate concentrations
Protocol: A 1-year field evaluation of enhanced in situ bioremediation was performed at Test Area North (“TAN”) of the Idaho National Engineering and Environmental Laboratory. […] The locations of a 5,000 μg/L TCE isopleth (14); 1,000 μg/L TCE isopleth (16); 100 μg/L TCE isopleth (18); and 5 μg/L TCE isopleth (20) are shown by solid lines. FIG. 2 illustrates a cross section of this site, showing the surface of the ground (22), an approximately 63-m (210-feet) fractured basalt unsaturation zone (24) (not drawn to scale), an approximately 60-m (200-feet) fractured basalt aquifer (26), and an impermeable clay interbed (28). […]
The initial electron donor addition strategy involved continuous injection of potable water at 37.85 liters/minute (10 gpm) into Well TSF-05. […] It was determined that the continuous injection of clean water at 37.85 liters/minute (10 gpm) overwhelmed the flux of contaminants from the secondary source. […] This was intended to prevent significant quantities of electron donor from collecting in the injection well and to help prevent biofouling. […]
Eleven monitoring wells (i.e., TAN-D2, TAN-9, TAN-10A, TAN-25, TAN-26, TAN-27, TAN-28, TAN-29, TAN-30A, TAN-31, and TAN-37) were sampled biweekly and analyzed for electron donors, biological activity indicators, competing inorganic electron acceptors and their reduced products, chloroethenes, ethene, pH, temperature, and specific conductivity.

Row | effect on the solution's surface tension ([1]; 1% and 10% ethyl lactate added to sodium lactate solutions) | SMILES | interfacial tension as % of the value at 0.1% sodium lactate ([2]; sodium lactate 30%) [%] | decrease of interfacial tension ([2]; sodium lactate increased from 0.1 to 3%) | change in surface tension ([1]; sodium lactate 0.01 to 7%) | change in surface tension ([1]; sodium lactate increased to 30 and 60%) | TCE concentrations ([3]; 10 of 15 wells) | TCE concentration ([3]; well 03-010MW, pre-lactate around 5,690) | TCE concentration ([3]; well 03-020MW, pre-lactate around 4,600) [µg/L] | increase of PCE concentrations ([4]; at least one well, following injection) | reductive dechlorination of PCE and TCE ([4]; by the third month) | biomass (phospholipid fatty acid analysis) ([4]; close to the injection well) | radius of influence within which PCE was converted to DCE ([4]; crossgradient) | radius of influence within which PCE was converted to DCE ([4]; downgradient) [m] | reductive dechlorination of TCE to ethene [5]
1 | pronounced effect | CCOC(=O)C(C)O (centres unmarked) [ethyl lactate] | – | – | – | – | – | – | – | – | – | – | – | – | –
2 | – | CC(O)C(=O)[O-].[Na+] (centres unmarked) [sodium lactate] | 47 | about 26% | almost no change | dramatic decrease | below detectable levels and/or the maximum contaminant level (MCL) | approximately 50 μg/L | ~130 | greater than fifteen-fold | dramatically transformed to cis-1,2-DCE | increased up to an order of magnitude | approximately 6 m | ~8 | Enhanced reductive dechlorination of TCE to ethene was observed
